Laboratory results published in US20210275521A1, “OXABICYCLOHEPTANES FOR TREATMENT OF SECONDARY ACUTE MYELOID LEUKEMIA” (Lixte Biotechnology, Inc., priority 2017, published 2021).

Tests used:
SKM-1 = experiment: MTT cytotoxicity assay, SKM-1 (sAML cell line); type: cell-based, human; conditions: for SKM-1 cell viability: 24h incubation
Protocol: (§1) The following five human leukemia cell lines were obtained from the Shanghai Institute of Cell Biology (Shanghai, China): Kasumi-1, HL-60, THP-1, U937 and K562. The SICM-1 leukemia cell line was acquired from the Health Science Research Resources Bank (Osaka, Japan), established from a patient with MDS that had progressed to myelomonocytic leukemia.
(§2) Cells were seeded into 96-well microtiter plates (Nunc, Roskilde, Denmark) at densities of either 1×10^5 cells/ml (established cell lines) or 5×10^5 cells/ml (primary AML cells). […] After exposure, 20 μl of 3-(4, 5-dimethylthiazol-2-yl)-2, 5-diphenylterazolium bromide solution (MTT, Sigma-Aldrich) was added to each well. The plates were then incubated for 4 h at 37° C. The MTT-containing solution was then aspirated away, 200 μI DMSO added to each well, and absorbance at 570 nm was measured.

SKM-1 xenografts = experiment: In vivo tumorigenicity assay, SKM-1 xenograft; parameters: species or system NOD/SCID mice; conditions: 2 mg/kg i.p. every other day for 14d, vs control
Protocol: All animal studies were performed according to the guidelines of Animal Care and Use Committee of the First Affiliated Hospital of Zhejiang University and met the NIH guidelines for the care and use of laboratory animals. And all animal studies were approved by IACUC committee of the First Affiliated Hospital of Zhejiang University. Nonobese diabetic/severe combined immunodeficiency (NOD/SCID) mice aged 6 weeks were purchased from the Shanghai Experimental Animal Center of the Chinese Academy of Sciences (Shanghai, China). SKM-1 cells (5×106 in 100 μl PBS) were injected subcutaneously into the right flank of each mouse. By 10-14d, when the tumor volumes had reached 90-110 mm3, the mice were randomly divided into four groups: DNR LB100, DNR only, LB100 only, and control. Mice were injected intraperitoneally (i.p.) with 2 mg/kg DNR and/or 2 mg/kg LB100, every other day for a total of 14d. Control mice were injected with an equal volume of PBS. Tumor size was monitored every 3d based on caliper measurements of the two perpendicular diameters; tumor volume was calculated using the formula V=(width′×length×it/6).

Kasumi-1 = experiment: MTT cytotoxicity assay, Kasumi-1; type: cell-based; conditions: Homo sapiens; Kasumi-1, at 4 h after treatment
Protocol: as §1
(§3) Cells were seeded into 96-well microtiter plates (Nunc, Roskilde, Denmark) at densities of either 1×10^5 cells/ml (established cell lines) or 5×10^5 cells/ml (primary AML cells). Cultures were exposed to different drugs for 24 h. After exposure, 20 μl of 3-(4, 5-dimethylthiazol-2-yl)-2, 5-diphenylterazolium bromide solution (MTT, Sigma-Aldrich) was added to each well. The plates were then incubated for 4 h at 37° C. The MTT-containing solution was then aspirated away, 200 μI DMSO added to each well, and absorbance at 570 nm was measured.

HL-60 = experiment: MTT cytotoxicity assay, HL-60; type: cell-based; conditions: Homo sapiens; HL-60, at 4 h after treatment
Protocol: as §1, §2

THP-1 = experiment: MTT cytotoxicity assay, THP-1; type: cell-based; conditions: Homo sapiens; THP-1, at 4 h after treatment
Protocol: as §1, §2

U937 = experiment: MTT cytotoxicity assay, U937; type: cell-based; conditions: Homo sapiens, U-937; U937, at 4 h after treatment
Protocol: as §1, §2

K562 = experiment: MTT cytotoxicity assay, K562; type: cell-based; conditions: Homo sapiens; K562, at 4 h after treatment
Protocol: as §1, §3

SKM-1 cells [1] = experiment: Leukemia colony-forming assay; type: cell-based, human; conditions: 7 days in methylcellulose medium
Protocol: LB100-treated SKM-1 cells were seeded in a methylcellulose medium and incubated for 7 d at 37° C. The number of leukemia colony-forming units (CFU-Ls) containing >50 cells were determined manually under a light microscope (Olympus).

PP2A = molecular target: T1, PP2A (Homo sapiens, UniProt P67775); experiment: PP2A phosphatase activity assay in SKM-1 cells; type: cell-based; conditions: 10 μM LB100, SKM-1 cells
T1 construct: endogenous in cells; host or cells: SKM-1 cells (lysate, immunoprecipitated with Millipore kit)
T1 sequence (P67775 whole entry): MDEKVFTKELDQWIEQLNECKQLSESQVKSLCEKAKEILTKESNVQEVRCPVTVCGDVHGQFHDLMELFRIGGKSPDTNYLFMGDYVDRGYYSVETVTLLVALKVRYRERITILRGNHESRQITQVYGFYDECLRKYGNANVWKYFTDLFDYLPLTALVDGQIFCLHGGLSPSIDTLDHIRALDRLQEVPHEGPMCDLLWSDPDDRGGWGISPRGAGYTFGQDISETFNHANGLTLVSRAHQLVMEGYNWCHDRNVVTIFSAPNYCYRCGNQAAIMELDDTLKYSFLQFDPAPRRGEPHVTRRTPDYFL
T1 sequence (P30153 2-589 partner limits assumed): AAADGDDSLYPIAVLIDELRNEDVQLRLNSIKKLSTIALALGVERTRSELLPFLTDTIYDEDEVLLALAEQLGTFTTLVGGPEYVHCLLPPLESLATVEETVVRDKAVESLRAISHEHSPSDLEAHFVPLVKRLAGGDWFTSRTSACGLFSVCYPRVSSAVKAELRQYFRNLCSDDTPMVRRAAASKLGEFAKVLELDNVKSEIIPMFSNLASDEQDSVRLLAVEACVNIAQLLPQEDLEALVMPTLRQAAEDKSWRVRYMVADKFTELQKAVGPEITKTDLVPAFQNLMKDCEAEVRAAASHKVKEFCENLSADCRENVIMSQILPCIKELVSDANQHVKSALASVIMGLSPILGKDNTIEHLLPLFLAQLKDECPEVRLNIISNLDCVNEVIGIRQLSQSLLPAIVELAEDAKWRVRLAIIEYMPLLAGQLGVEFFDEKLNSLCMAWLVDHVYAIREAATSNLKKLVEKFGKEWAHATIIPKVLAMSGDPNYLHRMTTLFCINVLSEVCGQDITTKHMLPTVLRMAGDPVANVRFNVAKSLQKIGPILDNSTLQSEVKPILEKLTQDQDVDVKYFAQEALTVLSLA
Protocol: 1×IV SKM-1 cells were seeded into 6-well microtiter plates and treated with different concentrations of LB100 (0, 1.25, 2.5, 5, 10 μNI). […] Cell lysate was sonicated for 10 seconds and then centrifuged at 20,000 g for 15 minutes. Supernatant was then assayed with the PP2A Immunoprecipitation Phosphatase Assay Kit (Millipore, Mass., USA).

SKM-1 cells [2] = experiment: Western blotting of SKM-1 cells; type: cell-based, human
Protocol: Cells were washed twice in PBS and lysed in 10 mM Tris, 1 mM ethylenediaminetetra-acetic acid (EDTA), 10 mM KCl, 0.3% Triton, and 0.1 mM phenylmethanesulfonyl fluoride (PMSF). Equal amounts of protein (30-50 μg) were separated on 8-12% SDS-polyacrylamide gels, and transferred to polyvinylidene fluoride (PVDF) membranes. Membranes were blocked with 5% non-fat milk and incubated overnight with the appropriate primary antibody at manufacturer-specified dilutions. Primary monoclonal antibodies were against I3-ACTIN (Santa Cruz Biotechnology, CA, USA); CDCl25C, p-CDCl25C, CDCl2, p-CDCl2, PP2A-A, PP2A-B, PP2A-C (Epitomics, USA); AKT, p-AKT, PARP, RAS, p-MEK, p-ERK, Raf, p-CamKII, Bc.1-2 and p-Bd-2 (Cell Signaling Technology, MA, USA).
Next, the membranes were washed three times in TBS-T buffer (10 mm Tris-HCl, pH 8, 150 mm NaCl, 0.1% Tween 20), and incubated for 1 h with the corresponding horseradish peroxidase (HRP)-conjugated secondary antibody at 1:5,000 dilution. Bound secondary antibody was detected using an enhanced chemiluminescence (ECL) system (Pierce Biotechnology, IL, USA).

SKM-1 cells [3] = experiment: Cell cycle analysis by flow cytometry; type: cell-based, human; conditions: 12 h exposure at 5 μM
Protocol: Cells were collected after being fixed overnight in 75% ethanol at −20° C. Fixed cells were washed twice with PBS, then incubated for 30 min with RNase A and propidium iodide (10 μg/ml). Cell cycle analysis was performed using a BDL SRII Flow Cytometer and FACSDiva Software (BD Bioscience, Franklin Lakes, USA). Raw data was analyzed using ModFit LT 3.2 software (Verity Software House, Topsham, USA).

SKM-1 cells [4] = experiment: Annexin V and propidium iodide flow-cytometry apoptosis assay; type: cell-based, human; conditions: for rate of apoptosis: LB100 10 μM 24 h
Protocol: Cells were seeded into 6-well plates, and treated for 24h at 37° C. with different concentrations of LB100 (0, 1.25, 2.5, 5,10 μM). After washing with PBS, aliquots of the cells were resuspended in binding buffer, and stained with 5 μl Annexin V and 5 μl propidium iodide (Biouniquer, Nanjing, China) according to the manufacturer's instructions. Fluorescence-activated cell sorting (FACS) was then performed immediately after staining.
Cells (5×10^5 cells/well) were pre-incubated for 3 h at 37° C. in the presence or absence of 20 KM of the pan-caspase inhibitor z-VAD-fmk (R&D Systems, MN, USA) in DMSO. Cells were then treated with LB100 for 24h, and processed in the Annexin V-binding assay as described above.

SKM-1 cells [5] = experiment: Hoechst staining of nuclear morphology; type: cell-based, human; conditions: 24 h, varying doses
Protocol: SKM-1 cells were treated with LB100 for 24 h. Cells were then permeabilized with 0.5% Triton X-100 for 30 min, washed with PBS, stained with 10 μg/ml Hoechst for 30 min, and washed with PBS. Nuclear morphology was observed immediately after using a BX51 fluorescence microscope (Olympus, Tokyo, Japan).

miR-181b-1 [6] = experiment: MicroRNA microarray analysis; type: cell-based, human; conditions: SKM-1, exposure 12h
Text: Total RNA was extracted from SKM-1 and LB100-treated-SKM-1 cells using the RNeasy mini kit (Qiagen, Calif., USA) according to the manufacturer's instructions. The miRNA microarray analysis was done by KangChen (Shanghai, China).

miR-181b-1 [7] = experiment: Quantitation of miR-181b-1 by real-time quantitative RT-PCR; type: cell-based, human; conditions: SKM-1, normalized to U6 RNA, vs control
Text: Total miRNA was extracted from 1×10^6 SKM-1 cells using the RNAiso kit for small RNA (TaKaRa, Japan), and reverse-transcribed using the One Step PrimeScript miRNA cDNA Synthesis Kit (TaKaRa, Japan). The resulting cDNA was quantified using the iCycler Real-time PCR Detection System (BioRad, Calif., USA) and SYBR Green (Takara, Japan). The expression of miR-181b-1 was quantified relative to the expression of human U6 small nuclear RNA using the 2-°° c.′ method.

Bcl-2 = experiment: Immunohistochemistry staining of SKM-1 xenograft for Bcl-2; parameters: species or system NOD/SCID mice; conditions: in-vivo
Protocol: Immunohistochemical staining was performed on the paraffin-embedded sections. Tissue sections were dewaxed and rehydrated before performing antigen retrieval. Anti-BCL-2 (Cell Signaling Technology, MA, USA) were applied at 1:100 dilution in PBS to incubate slides overnight at 4° C., and incubated with an HRP-conjugated secondary antibody for 1 hat room temperature. DAB was used for color development, and dark brown staining was considered positive. All slides were photographed with optical microscopy Olympus BX51.

With `COc1cccc2c1C(=O)c1c(O)c3c(c(O)c1C2=O)C[C@@](O)(C(C)=O)C[C@@H]3O[C@H]1C[C@H](N)[C@H](O)[C@H](C)O1` [DNR, Daunorubicin, reference compound] the SKM-1 cell viability (SKM-1) was “significantly diminished in a dose-dependent manner” and the tumor volume (SKM-1 xenografts) was “sharp decrease”.

Compound `CN1CCN(C(=O)C2C(C(=O)O)[C@H]3CC[C@@H]2O3)CC1` (stereo partly drawn) [LB100] has an IC50 (Kasumi-1) of 4.38 µM, an IC50 (HL-60) of 3.36 µM and an IC50 (THP-1) of 13.5 µM. For the same compound, the IC50 (U937) was 3.44 µM, the IC50 (K562) was 7 µM and the SKM-1 cell viability (SKM-1) was “significantly diminished in a dose-dependent manner”. For the same compound, the IC50 (SKM-1; Homo sapiens, SKM-1, at 4 h after treatment) was 5.35 µM, the “growth of SKM-1 cells, colony formation” value (SKM-1 cells [1]) was “dose-dependent inhibitory activity” and the “reduction of the activity of PP2A” value (PP2A) was “up to 60%”. The “CDCl2 and CDCl25C total- and phosphorylated-protein levels” value (SKM-1 cells [2]; 5 μM LB100, SKM-1) was “markedly downregulated”, the “phosphorylated Bcl-2 and CamKII” value (SKM-1 cells [2]; after LB100 administration) was “increased” and the “caspase-3 and PARP cleavage” value (SKM-1 cells [2]; immunoblotting, 24h exposure, SKM-1) was “cleavage in a concentration-dependent manner”. For the same compound, the “Bcl-2 expression, immunoblot” value (SKM-1 cells [2]; in-vitro, SKM-1, 5 μM LB100) was “markedly downregulated”, the “expression of the three PP2A subunits (PP2A-A, PP2A-B, PP2A-C)” value (SKM-1 cells [2]; western blot, 5 μM LB100 for 12 h) was “moderately decreased” and the “levels of p-AKT” value (SKM-1 cells [2]; western blot, sAML cells) was “increased”. For the same compound, the G2/M phase cells (SKM-1 cells [3]; SKM-1 (13.4% before)) was 31.5%, the G0/G1 phase cells (SKM-1 cells [3]; SKM-1 (36.7% before)) was 9.8% and the “fraction of apoptotic sAML cells” value (SKM-1 cells [4]; 1.25 μM, 24h (3.13% in the absence of LB100)) was 8.51%. For the same compound, the “fraction of apoptotic sAML cells” value (SKM-1 cells [4]; 2.5 μM, 24h) was 13.61%, the “fraction of apoptotic sAML cells” value (SKM-1 cells [4]; 5 μM, 24h) was 37% and the “fraction of apoptotic sAML cells” value (SKM-1 cells [4]; 10 μM, 24h) was 65.27%. The rate of apoptosis (SKM-1 cells [4]; absence of z-VAD-FMK) was 62%, the rate of apoptosis (SKM-1 cells [4]; presence of pan-caspase inhibitor z-VAD-FMK) was 16% and the “nuclear morphology after Hoechst staining” value (SKM-1 cells [5]) was “increased amounts of condensed, pyknotic nudei”. The tumor volume (SKM-1 xenografts) was “sharp decrease”, the “miR-181b-1 in microRNA profiling” value (miR-181b-1 [6]) was “significantly up-regulated” and the “relative expression of miR-181b-1, increase” value (miR-181b-1 [7]) was “about 2 fold”. For the same compound, the “Bcl-2 expression, immunohistochemistry” value (Bcl-2) was “markedly downregulated”.
